Test results taken from the NIST ThermoML archive (doi:10.1016/j.jct.2019.03.007).
“And” between values parts separate entries of the source, which are not always exact repeats. Identical values can stand only once.

Columns and labels:
[1] = for molar volume: 100 kPa, X-ray diffraction; for Triple point temperature: DSC
[2] = Molar enthalpy of transition or fusion; details: DSC

O=[N+]([O-])[O-].O=[N+]([O-])[O-].[Ca+2] [calcium nitrate]
[1], Crystal 1
Details	molar volume
298 K	6.616e-05 m3/mol and 6.614e-05 m3/mol
323 K	6.637e-05 m3/mol and 6.638e-05 m3/mol
348 K	6.658e-05 m3/mol
373 K	6.68e-05 m3/mol
398 K	6.702e-05 m3/mol and 6.703e-05 m3/mol
423 K	6.725e-05 m3/mol and 6.726e-05 m3/mol
448 K	6.748e-05 m3/mol and 6.749e-05 m3/mol
473 K	6.771e-05 m3/mol and 6.773e-05 m3/mol
498 K	6.794e-05 m3/mol and 6.797e-05 m3/mol
523 K	6.818e-05 m3/mol and 6.821e-05 m3/mol
548 K	6.845e-05 m3/mol and 6.842e-05 m3/mol
573 K	6.871e-05 m3/mol and 6.866e-05 m3/mol
598 K	6.9e-05 m3/mol and 6.89e-05 m3/mol
623 K	6.92e-05 m3/mol and 6.915e-05 m3/mol
648 K	6.945e-05 m3/mol and 6.94e-05 m3/mol
673 K	6.97e-05 m3/mol and 6.967e-05 m3/mol
698 K	6.994e-05 m3/mol and 6.992e-05 m3/mol
723 K	7.019e-05 m3/mol

Details	Molar enthalpy of transition or fusion, [2] [kcal/mol]	Triple point temperature, [1] [K]
Crystal 1	7.98	823
Crystal 2	0.0289	290
